{"source": "paper PMC7738869", "about": "“A novel STAT3 inhibitor W2014-S regresses human non-small cell lung cancer xenografts and sensitizes EGFR-TKI acquired resistance” (Theranostics, 2021)", "key": {"[1]": {"tested_on": "PC-9/GR cells", "experiment": "Cell viability assay (CCK-8), PC-9/GR", "assay_type": "cell-based, human", "conditions": "72 h", "description": "Cell proliferation was measured using the Cell Counting Kit-8 (CCK-8, B34304, Bimake, USA). A549 (2 × 10^3/100 μL/well), PC-9 (3 × 10^3/100 μL/well) or PC-9/GR cells (3 × 10^3/100 μL/well) were plated into each well of 96-well plates (Costar, USA). […] Then, 10 μL of CCK-8 was added to each well, and cells were incubated for 1-4 h until the color of untreated controls turned to orange. The absorbance (A) was measured by a microplate reader (FLUOstar Omega-ACU, USA) at test and reference wavelengths of 450 nm. The percentage of growth was calculated as Cell viability (%) = [A (Compound +) - A (Blank) ] / [A (Compound -) - A (Blank) ] × 100%. Cell viability meant proliferation of cells. Each experiment was done at least in triplicate, and thrice independently."}, "[2]": {"tested_on": "A549 cells", "experiment": "Colony formation assay, A549", "assay_type": "cell-based, human", "conditions": "A549, as low as 0.3 μM"}, "[3]": {"tested_on": "PC-9 cells", "experiment": "Colony formation assay, PC-9", "assay_type": "cell-based, human", "conditions": "PC-9, as low as 0.3 μM"}, "[4]": {"tested_on": "AKT", "experiment": "Western blot of phosphorylated and total AKT in A549 and PC-9 cells", "assay_type": "cell-based, human", "conditions": "A549 and PC-9, 0-3 μM, 24 h", "description": "(§1) Cells or tumor tissue were lysed with RIPA buffer (Beyotime, Shanghai, China) supplemented with protease inhibitors (Beyotime, Shanghai, China) and phosphatase inhibitors (Bimake, USA). Lysates were denatured by heating for 5 min at 99 °C and loaded on 4-10% SDS-polyacrylamide gel electrophoresis. Then the proteins were transferred to polyvinylidene fluoride (PVDF) membranes (Millipore, USA). The membranes were blocked and probed with primary antibodies and secondary HPR-conjugated antibodies. At last the membranes were detected by chemiluminescence (Tanon, Shanghai, China). For co-immunoprecipitation experiments, 293T cells were plated and grew to about 80% confluency, then co-transfected with plasmids of HA-STAT3 and Flag-STAT3 using Lipofectamine 2000. After 24 h, cells were treated with different concentrations of W2014-S for following 24 h, and stimulated with IL-6 (100 ng/mL) for 1 h. Cells were lysed with IP RIPA buffer (Beyotime, Shanghai, China) supplemented with protease inhibitors (Beyotime, Shanghai, China) and phosphatase inhibitors (Bimake, America), and lysates were cultured with Anti-flag Affinity Gel (B23102, Bimake, USA) overnight at 4 ℃. The gel was washed by PBST for three times and added 1×loading buffer and denatured by heating for 5 min at 99 ℃. Then the proteins were resolved on SDS-PAGE, transferred to PVDF membranes and analysed with immunoblotting."}, "[5]": {"tested_on": "A549 xenografts", "experiment": "A549 tumor xenografts in nude mice", "assay_type": "in vivo", "description": "(§2) To establish cell xenograft model, nude mice were injected subcutaneously with A549 cells (2×10^6) or PC-9/GR cells (4×10^6). For PDX model, the PDX sample was from The Jackson Laboratory. The model ID is TM00192/LG0567F. For this patient, the primary site is lung, the initial and diagnosis and final diagnosis is lung adenocarcinoma. The stage/grade is AJCC IB/grade 3. […] The sample type is surgical resection. […] The tumor sample were cut into approximately 1 mm^3, and the tissue was pushed under skin of mice by TROCHAR. When tumor volumes reached approximately 100 mm^3, mice were randomly distributed into groups of 7 mice. […] Tumor size was measured every two days by vernier caliper. The average tumor volume in each group was calculated based on the equation for a prolate spheroid (tumor volume = (short-diameter)^2 × large-diameter × π / 6 ) and expressed in mm^3."}, "[6]": {"tested_on": "PDX (TM00192/LG0567F, lung adenocarcinoma)", "experiment": "Lung cancer PDX tumor xenografts in nude mice", "assay_type": "in vivo", "description": "as §2"}, "[7]": {"experiment": "Acute toxicity study", "assay_type": "in vivo", "conditions": "KM mice, 100, 300 and 500 mg/kg i.p., observed 14 days", "description": "KM mice (4-5 weeks of age, weighing 18-22g, both male and female) for acute toxicity experiment were provided from the Experimental Animal Center of Sun Yat-sen University (Guangdong, China) and were housed in a specific pathogen-free facility. To test the acute toxicity, 40 mice were randomly distributed into 4 groups, and treated with W2014-S at 100 mg/kg, 300 mg/kg, and 500 mg/kg by intraperitoneal injection. Each group have 10 mice (half male and half female). […] All animal experiments were approved by the Research Ethics Committee of Sun Yat-sen University (SYSU-IACUC-2020-000312)."}, "[8]": {"biological_target": "STAT3-STAT3 dimerization (Homo sapiens, UniProt P40763)", "sequence (P40763 whole entry)": "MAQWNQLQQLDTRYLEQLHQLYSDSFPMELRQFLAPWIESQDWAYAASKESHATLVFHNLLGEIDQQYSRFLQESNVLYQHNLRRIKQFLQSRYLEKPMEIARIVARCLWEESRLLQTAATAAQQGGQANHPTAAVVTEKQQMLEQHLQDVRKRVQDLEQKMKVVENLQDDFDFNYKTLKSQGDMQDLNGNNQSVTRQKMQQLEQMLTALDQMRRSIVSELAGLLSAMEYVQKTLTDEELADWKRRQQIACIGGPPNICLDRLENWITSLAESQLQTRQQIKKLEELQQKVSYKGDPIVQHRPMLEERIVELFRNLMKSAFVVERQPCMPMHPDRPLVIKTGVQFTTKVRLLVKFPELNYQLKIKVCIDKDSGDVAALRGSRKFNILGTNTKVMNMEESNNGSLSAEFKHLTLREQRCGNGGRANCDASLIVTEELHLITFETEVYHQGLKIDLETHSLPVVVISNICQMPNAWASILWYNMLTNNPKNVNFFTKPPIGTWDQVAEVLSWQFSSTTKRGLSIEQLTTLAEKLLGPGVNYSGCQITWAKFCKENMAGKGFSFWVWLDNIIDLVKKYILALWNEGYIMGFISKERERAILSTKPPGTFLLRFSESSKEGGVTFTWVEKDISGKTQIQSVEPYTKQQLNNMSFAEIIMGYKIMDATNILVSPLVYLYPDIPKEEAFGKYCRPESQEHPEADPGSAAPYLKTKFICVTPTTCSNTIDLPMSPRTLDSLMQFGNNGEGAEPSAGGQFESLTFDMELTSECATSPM", "experiment": "Co-immunoprecipitation of HA-STAT3 and Flag-STAT3 in HEK-293T cells", "assay_type": "cell-based", "design": "expressed in transfected cells", "conditions": "24 h, 50 ng/mL EGF 30 min", "description": "as §1, with “After 24 h, cells were treated with different concentrations of W2014-S for following 24 h, and stimulated with IL-6 (100 ng/mL) for 1 h.” left out"}}}
{"smiles": "C[C@H](Oc1ccc(-c2nc3nc(C4=CCN(C(=O)OC(C)(C)C)CC4)ccc3[nH]2)cc1)c1ccccc1", "note": "[W2014-S]", "values": [{"measurement": "sensitization of acquired resistance (erlotinib)", "setting": "[1]; PC-9/GR, with erlotinib", "result": "sensitized acquired resistance"}, {"measurement": "resensitization of PC-9/GR to gefitinib", "setting": "[1]; W2014-S 1 μM, gefitinib 2 μM", "result": "sufficient to resensitize PC-9/GR to gefitinib"}, {"measurement": "colony formation", "setting": "[2]", "result": "significantly suppressed the colony formation"}, {"measurement": "colony formation", "setting": "[3]", "result": "significantly suppressed the colony formation"}, {"measurement": "phosphorylation of AKT and total AKT", "setting": "[4]", "result": "not affected"}, {"measurement": "body weights and signs of toxicity during treatment", "setting": "[5]; A549 xenograft mice, 5 or 15 mg/kg daily, 21 d", "result": "no significant changes in body weights, or obvious signs of toxicity"}, {"measurement": "level of pY705-STAT3 in tumor (western blot)", "setting": "[5]; A549 xenografts", "result": "significantly suppressed the level of pY705-STAT3"}, {"measurement": "growth of xenografts", "setting": "[5]; A549 xenografts, i.p. 5 or 15 mg/kg daily, 21 d", "result": "significantly inhibited growth"}, {"measurement": "expression of Ki-67 in tumor (IHC)", "setting": "[5]; A549 xenografts, vs vehicle", "result": "significantly reduced"}, {"measurement": "level of pY705-STAT3 in tumor (western blot)", "setting": "[6]; PDX", "result": "significantly suppressed the level of pY705-STAT3"}, {"measurement": "body weights and signs of toxicity during treatment", "setting": "[6]; PDX mice, 5 or 15 mg/kg daily, 21 d", "result": "no significant changes in body weights, or obvious signs of toxicity"}, {"measurement": "growth of xenografts", "setting": "[6]; PDX, i.p. 5 or 15 mg/kg daily, 21 d", "result": "significantly inhibited growth"}, {"measurement": "expression of Ki-67 in tumor (IHC)", "setting": "[6]; PDX, vs vehicle", "result": "significantly reduced"}, {"measurement": "acute toxicity: body weights and signs of toxicity", "setting": "[7]", "result": "no significant changes in body weights, or obvious signs of toxicity"}, {"measurement": "binding of HA-STAT3 and Flag-STAT3 (STAT3 dimerization)", "setting": "[8]", "result": "inhibited the binding of HA-STAT3 and Flag-STAT3 in intact cells even at 0.3 μM"}]}
